Experimental data as given in patent EP0471756B1, “SACCHARIN DERIVATIVES USEFUL AS PROTEOLYTIC ENZYME INHIBITORS AND PREPARATION THEREOF” (priority 1989, dated 1990).

The compounds below were run against T1, human leukocyte elastase (HLE) (Homo sapiens, UniProt P08246) (assay: Inactivation of human leukocyte elastase: kon measured, Ki* = koff/kon calculated). Conditions: Elastase; Ki* = koff/kon, not a truly reversible inhibition constant.
T1 sequence (P08246 30-267): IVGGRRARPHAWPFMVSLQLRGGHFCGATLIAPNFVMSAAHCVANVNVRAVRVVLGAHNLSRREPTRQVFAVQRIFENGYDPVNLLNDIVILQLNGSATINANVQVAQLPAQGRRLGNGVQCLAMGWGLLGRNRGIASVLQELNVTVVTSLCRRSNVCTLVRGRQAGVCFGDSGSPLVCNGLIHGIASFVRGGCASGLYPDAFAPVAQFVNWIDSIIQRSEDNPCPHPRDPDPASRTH
Type: biochemical
Method: Thus, instead of measuring a Ki, a Ki* is calculated which is defined as the ratio of the koff/kon, the rate of reactivation of the enzyme to the rate of inactivation of the enzyme. The values of koff and kon are measured and Ki* is then calculated.
The rate of inactivation, kon, of enzymatic activity was determined for the compounds tested by measuring the enzyme activity of an aliquot of the respective enzyme as a function of time after addition of the test compound. […] The rate of inactivation is then equal to kon =(kobs)/([I]) [formula] where [I] is the concentration of the inhibiting compound.
The reactivation constant, koff, is similarly determined and the inhibition constant, Ki*, is then calculated as Ki * = koff /kon [formula]

Compound	Ki
O=C1c2ccccc2S(=O)(=O)N1Cn1nnn(-c2ccccc2)c1=O [Example 30BH]	> 10000 nM
CCOc1cccc2c1C(=O)N(CSc1nnnn1-c1ccccc1)S2(=O)=O [Example 30AT]	3 nM
O=C1c2c(-c3ccccc3)cccc2S(=O)(=O)N1CSc1nnnn1-c1ccccc1 [Example 30BC]	80 nM
CC(=O)Nc1ccc2c(c1)C(=O)N(CSc1nnnn1-c1ccccc1)S2(=O)=O [Example 37, 5-acetylamino-2-(1-phenyl-1H-tetrazol-5-ylthiomethyl)saccharin]	> 90000 nM
Cn1cnnc1SCN1C(=O)c2ccccc2S1(=O)=O [Example 30AC]	246 nM
O=C1c2ccccc2S(=O)(=O)N1COc1c(Cl)cccc1Cl [Example 30BB]	> 500 nM

Same assay, conditions: Elastase; rate of inactivation kon = kobs/[I]; value is kon x 10^-3

10^-3 x kon	Compound
50.7 M^-1 sec^-1	CCc1cccc2c1C(=O)N(CCl)S2(=O)=O [Example 28]
0.02 M^-1 sec^-1	O=C1c2ccccc2C(=O)N1CN1C(=O)c2ccccc2S1(=O)=O [Example 30BF]

Same assay, conditions: Elastase; rate of inactivation kon = kobs/[I]; value is kon x 10^-3; read-out: 10^-3 x kon

Compound	kinact/KI
CCC(CC)c1cccc2c1C(=O)N(CCl)S2(=O)=O [Example 22C, 2-chloromethyl-4-(3-pentyl)saccharin]	105000 M⁻¹ s⁻¹
O=C1c2ccccc2S(=O)(=O)N1CF [Example 27, 2-fluoromethylsaccharin]	7500 M⁻¹ s⁻¹
CCCCCCC(=O)Nc1cccc(-n2nnnc2SCN2C(=O)c3ccccc3S2(=O)=O)c1 [Example 7, 2-[1-(3-heptanamidophenyl)-1H-tetrazol-5-ylthiomethyl]saccharin]	5200 M⁻¹ s⁻¹
O=C1c2ccccc2S(=O)(=O)N1/C=C/CSc1nnnn1-c1ccccc1 [Example 38, trans-2-[3-(1-phenyl-1H-tetrazol-5-ylthio)-1-propenyl]saccharin]	43000 M⁻¹ s⁻¹
O=C1c2ccccc2S(=O)(=O)N1CSc1nnc2ccccn12 [Example 30N]	250 M⁻¹ s⁻¹
O=C1c2ccccc2S(=O)(=O)N1CSc1nnc(SCCN2CCOCC2)s1 [Example 33, 2-(5-[2-(4-morpholinyl)ethylthio]-1,3,4-thiadiazol-2-ylthiomethyl)saccharin]	3600 M⁻¹ s⁻¹
O=C1c2ccccc2S(=O)(=O)N1CSc1nnc(S)s1 [Example 30AH, 2-(5-mercapto-1,3,4-thiadiazol-2-ylthiomethyl)saccharin]	1100 M⁻¹ s⁻¹
CC(C)c1cccc2c1C(=O)N(CSc1nnnn1CCN1CCOCC1)S2(=O)=O [Example 30BI]	39000 M⁻¹ s⁻¹
COC(=O)c1cn(-c2ccccc2)c(SCN2C(=O)c3ccccc3S2(=O)=O)n1 [Example 30AR]	300 M⁻¹ s⁻¹
CSc1nn(CN2C(=O)c3ccccc3S2(=O)=O)c(=S)s1 [Example 30AD]	7000 M⁻¹ s⁻¹
O=C1c2cccc(Cl)c2S(=O)(=O)N1CCl [Example 22D]	75800 M⁻¹ s⁻¹
CCc1cccc2c1C(=O)N(CSc1nnnn1CCN1CCOCC1)S2(=O)=O [Example 30J]	14000 M⁻¹ s⁻¹
O=C1c2ccccc2S(=O)(=O)N1CSc1nncn1-c1ccccc1 [Example 30I]	450 M⁻¹ s⁻¹
CCc1cccc2c1C(=O)N(CSc1nnnn1CC(=O)N(C)C)S2(=O)=O [Example 30AV]	7600 M⁻¹ s⁻¹
O=C1c2c(Cl)cccc2S(=O)(=O)N1CSc1nnnn1-c1ccccc1 [Example 4, 4-chloro-2-(1-phenyl-1H-tetrazol-5-ylthiomethyl) saccharin]	20000 M⁻¹ s⁻¹
CCOc1cccc2c1C(=O)N(CSc1nnnn1-c1ccccc1)S2(=O)=O [Example 30AT]	45300 M⁻¹ s⁻¹
COC(=O)C(Sc1nnnn1-c1ccccc1)N1C(=O)c2ccccc2S1(=O)=O (stereo not shown) [Example 17, methyl 2-(1-phenyl-1H-tetrazol-5-ylthio)2-(2-saccharinyl)acetate]	2900 M⁻¹ s⁻¹
O=C1c2c(-c3ccccc3)cccc2S(=O)(=O)N1CSc1nnnn1-c1ccccc1 [Example 30BC]	5800 M⁻¹ s⁻¹
CCOC(=O)Cn1nnnc1SCN1C(=O)c2ccccc2S1(=O)=O [Example 30AP]	1300 M⁻¹ s⁻¹
O=C1c2ccccc2S(=O)(=O)N1CSc1nnnn1CCO [Example 30AQ, 2-[1-(2-hydroxyethyl)-1H-tetrazol-5-ylthiomethyl]saccharin]	900 M⁻¹ s⁻¹
O=C(O)CCC(=O)Nc1cccc(-n2nnnc2SCN2C(=O)c3ccccc3S2(=O)=O)c1 [Example 35, 2-[1-(3-succinoylaminophenyl)-1H-tetrazol-5-ylthiomethyl]saccharin]	3600 M⁻¹ s⁻¹
COC(=O)c1cccc2c1C(=O)N(CCl)S2(=O)=O [Example 22G]	3000 M⁻¹ s⁻¹
O=C1C=Cc2ccc(OCN3C(=O)c4ccccc4S3(=O)=O)c3cccc1c23 [Example 30G]	9300 M⁻¹ s⁻¹

Compound	kinact/KI
O=C1c2ccccc2S(=O)(=O)N1CSc1nc2ccc([N+](=O)[O-])cc2o1 [Example 30BE]	7400 M⁻¹ s⁻¹
O=C(O)c1cccc(-n2nnn(CN3C(=O)c4ccccc4S3(=O)=O)c2=S)c1 [Example 30-O]	30 M⁻¹ s⁻¹
Cn1nnc(SCN2C(=O)c3ccccc3S2(=O)=O)n1 [Example 30X]	550 M⁻¹ s⁻¹
CCOc1cccc2c1C(=O)N(CSc1nnnn1CC(=O)N(C)C)S2(=O)=O [Example 30AX]	7500 M⁻¹ s⁻¹
CC(C)c1cccc2c1C(=O)N(Cn1nnn(-c3cccnc3)c1=S)S2(=O)=O [Example 30Z]	70000 M⁻¹ s⁻¹
CC(C)c1cccc2c1C(=O)N(CCl)S2(=O)=O [Example 22E]	4700 M⁻¹ s⁻¹
Cc1ccc(C)c2c1C(=O)N(CCl)S2(=O)=O [Example 29, 2-chloromethyl-4,7-dimethylsaccharin]	1100 M⁻¹ s⁻¹
Cn1cnnc1SCN1C(=O)c2ccccc2S1(=O)=O [Example 30AC]	190 M⁻¹ s⁻¹
COc1cccc2c1C(=O)N(CCl)S2(=O)=O [Example 22A, 2-chloromethyl-4-methoxysaccharin]	12400 M⁻¹ s⁻¹
O=C1c2ccc([N+](=O)[O-])cc2S(=O)(=O)N1CSc1nnnn1-c1ccccc1 [Example 31C]	3400 M⁻¹ s⁻¹
CC(C)c1cccc2c1C(=O)N(CSc1nnnn1C)S2(=O)=O [Example 30AN]	19000 M⁻¹ s⁻¹
COC(=O)c1cc(C(=O)OC)cc(-n2nnnc2SCN2C(=O)c3ccccc3S2(=O)=O)c1 [Example 30E]	7300 M⁻¹ s⁻¹
CN(C)C(=O)Cn1nnnc1SCN1C(=O)c2ccccc2S1(=O)=O [Example 30AS]	1700 M⁻¹ s⁻¹
O=C1c2ccccc2S(=O)(=O)N1CSc1nnnn1-c1cccnc1 [Example 30Q]	1380 M⁻¹ s⁻¹
COc1ccc2c(c1OC)C(=O)N(CCl)S2(=O)=O [Example 22F]	20000 M⁻¹ s⁻¹
O=C1c2ccccc2S(=O)(=O)N1CSc1nc2ccc([N+](=O)[O-])cc2s1 [Example 30BD]	11700 M⁻¹ s⁻¹
O=C1c2ccccc2S(=O)(=O)N1Cn1nnn(-c2cccnc2)c1=S [Example 30R]	2300 M⁻¹ s⁻¹
O=C(O)Cn1nnnc1SCN1C(=O)c2ccccc2S1(=O)=O [Example 34, 2-[1-(2-carboxymethyl)-1H-tetrazol-5-ylthiomethyl]saccharin]	400 M⁻¹ s⁻¹
CCC(C)c1cccc2c1C(=O)N(CCl)S2(=O)=O (stereo not shown) [Example 22B, 2-chloromethyl-4-sec.-butylsaccharin]	2400 M⁻¹ s⁻¹
O=C(O)c1ccc(-n2nnnc2SCN2C(=O)c3ccccc3S2(=O)=O)cc1 [Example 30D]	800 M⁻¹ s⁻¹
CCOc1ccc(OCCOCCOC)c2c1C(=O)N(CSc1nnnn1-c1ccccc1)S2(=O)=O [Example 30L]	6500 M⁻¹ s⁻¹
COCCOCCOc1ccc(OC)c2c1S(=O)(=O)N(CSc1nnnn1-c1ccccc1)C2=O [Example 30M]	1000 M⁻¹ s⁻¹
O=C1c2ccccc2S(=O)(=O)N1CS(=O)(=O)c1c(Cl)cccc1Cl [Example 32A, 2-(2,6-dichlorophenylsulfonylmethyl)saccharin]	600 M⁻¹ s⁻¹

Same assay, conditions: read-out: 10^-3 x kon

kinact/KI	Compound
4600 M⁻¹ s⁻¹	O=C1c2cc([N+](=O)[O-])ccc2S(=O)(=O)N1CSc1nnnn1-c1ccccc1 [Example 11, 5-nitro-2-(1-phenyl-1H-tetrazol-5-ylthiomethyl)saccharin]
